Measurements published in PMC11737842, “Development of a high‐throughput dual‐stream liquid chromatography–tandem mass spectrometry method to screen for inhibitors of glutamate carboxypeptidase II” (Rapid Communications in Mass Spectrometry, 2024).
Residues, ends and D or L forms follow the SMILES beside them.

Experiments:
[1] = molecular target: T1, Glutamate carboxypeptidase II (GCPII) (Homo sapiens, UniProt Q04609); experiment: LC/MS/MS measurement of Glu from GCPII cleavage of ([…]5 […]-labelled) NAAG; type: biochemical
T1 construct: gene FOLH1
T1 sequence (Q04609 whole entry): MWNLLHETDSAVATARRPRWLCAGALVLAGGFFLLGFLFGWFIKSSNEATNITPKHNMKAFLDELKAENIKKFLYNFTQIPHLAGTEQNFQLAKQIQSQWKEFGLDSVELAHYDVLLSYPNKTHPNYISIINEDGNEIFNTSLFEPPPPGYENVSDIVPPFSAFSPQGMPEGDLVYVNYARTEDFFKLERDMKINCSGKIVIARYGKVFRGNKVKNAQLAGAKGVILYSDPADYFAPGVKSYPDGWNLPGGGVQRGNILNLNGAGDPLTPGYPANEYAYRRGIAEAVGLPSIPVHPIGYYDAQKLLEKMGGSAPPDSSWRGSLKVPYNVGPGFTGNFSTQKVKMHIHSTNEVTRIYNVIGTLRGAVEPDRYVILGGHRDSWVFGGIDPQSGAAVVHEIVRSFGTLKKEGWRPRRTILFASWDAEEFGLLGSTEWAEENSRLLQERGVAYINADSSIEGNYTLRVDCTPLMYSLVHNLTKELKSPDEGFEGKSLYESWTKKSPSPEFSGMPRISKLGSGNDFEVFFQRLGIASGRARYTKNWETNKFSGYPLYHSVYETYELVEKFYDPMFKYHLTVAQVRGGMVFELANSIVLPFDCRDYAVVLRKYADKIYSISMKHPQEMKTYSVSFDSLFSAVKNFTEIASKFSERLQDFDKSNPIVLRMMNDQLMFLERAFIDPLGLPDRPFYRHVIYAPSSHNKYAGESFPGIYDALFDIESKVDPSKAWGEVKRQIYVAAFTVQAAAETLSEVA

[2] = molecular target: T1, Glutamate carboxypeptidase II (GCPII); experiment: LC/MS/MS enzymatic assay of Glu released from NAAG by purchased GCPII, 11-point IC50; type: biochemical

Compound | LC/MS/MS measurement of Glu from GCPII cleavage of (13C5 15N-labelled) NAAG [1] | IC50 [2] [nM]
CC(=O)N[C@@H](CC(=O)O)C(=O)N[C@@H](CCC(=O)O)C(=O)O [NAAG] (Ac-Asp-Glu-OH) | LC/MS/MS) method to directly measure Glu resulting from in vitro GCPII cleavage of NAAG | –
N[C@@H](Cn1oc(=O)[nH]c1=O)C(=O)O [quisqualic acid] | – | 1590
